“Also recorded” adds a separate entry of the source.
What was measured:
human platelets [1] = assay: Human platelets stored in plasma at RT, P-selectin surface expression (CD62P-FITC); format: cell-based; conditions: stored in plasma with DANA
[2] = system: Serratia marcescens strain (ATCC #43862); assay: Biofilm formation of S. marcescens, crystal violet; format: cell-based; conditions: 1 mM DANA, 48 h, crystal violet A595 nm
Protocol: To prepare the seed culture, the cryostock of Serratia marcescens was inoculated into 3 mL of brain-heart infusion broth with a cotton swab and incubated at 37° C. with agitation at 250 rpm for 6 h. The cell density was determined at 600 nm on a dual wavelength spectrometer and diluted to 0.5 McFarland Standard (1.5×10^8 cells/mL) with sterile PBS. Ten μL of the diluted culture was inoculated into 140 μL of 30% plasma in PAS, 30% PC by volume in PAS or 100% plasma, supplemented with or without 1 mM DANA, in the wells of 96-well PVC plates (Corning Biosciences). For each media, six replicates were performed. Ten μL of PBS was inoculated into the control wells. The microtiter plates were then sealed with sterile porous film (VWR) and placed on a platform shaker. The cultures were incubated for 48 h with gentle shaking (˜100 rpm). The cultures were gently mixed and transferred to a polystyrene plate for the determination of planktonic cell density at OD 595 nm. The wells on the original microtiter plates were washed with 3×200 μL of PBS, air dried, stained for 15 min with an aqueous solution of 0.1% (wt/vol) crystal violet, rinsed with water, and air dried for 1 hr. The crystal violet retained by the biofilm was eluted with 200 μL of dimethyl sulfoxide (DMSO) or 30% acetic acid, and read at 595 nm.

mouse platelets [3] = assay: In vivo survival of biotinylated platelets after injection of sialidase inhibitor; conditions: mice injected with 100 mM DANA vs PBS
Protocol: These studies then addressed whether inhibition of sialidase activity in vivo has an effect on platelet survival. […] Mice were injected with 100 mM DANA or PBS (phosphate buffered saline) as a control, after in vivo platelet biotinylation.

human platelets [4] = assay: Human platelets stored in 30% plasma and 70% PASa at RT, flow cytometry and pH; format: cell-based; conditions: 7 days at RT
Protocol: Human platelets were obtained as described in Example 13. The platelet pellet was resuspended in PPP, ⅕ volumes of original PRP, and aliquoted into wells of a 96-well microtiter plate (60 μL per well). PAS (designated as PASa), containing 7.15 mM Na2HPO4, 2.24 mM NaH2PO4, 10 mM sodium citrate, 30 mM sodium acetate, 79.2 mM NaCl, 5.0 mM KCl, and 1.5 mM MgCl2, was added to corresponding wells at 140 μL per well, DANA was added to 0, 0.1, and 0.5 mM from 10 or 100 mM stock in PBS to proper wells. The sample volumes in the wells were evened out with PBS. The plate was then covered with a gas-permeable film and placed on a shaker. Platelet size and density were measured by forward (FSC) and side scatter (SSC) on a FACSCalibur flow cytometer (BD) at Day 7, and pH was checked at Day 9.

mouse platelets [5] = assay: Mouse platelets stored at RT for 48 h with different concentrations of DANA, counted by flow cytometry; format: cell-based; conditions: 0.1 mM DANA, 48 h at RT
Protocol: Mouse platelets were isolated as described in Example 3, re-suspended in platelet resuspension buffer and split to four aliquots. […] The samples were incubated for 30 min at 37° C., centrifuged and supernatants removed. The platelets re-suspended in plasma. DANA and glucose were restored to their initial concentrations. The platelet suspensions were stored at RT. After 48 h, platelets under each storage condition were counted by flow cytometry.

mouse platelets [6] = assay: Sialidase (neuraminidase)-induced loss of platelet surface receptors, flow cytometry and immunoblot; format: cell-based; conditions: mouse platelets, flow cytometry and Western blot
human platelets [7] = assay: Human platelets stored in plasma at RT, size and density by FSC/SSC; format: cell-based; conditions: 72 h at RT in plasma
[8] = system: platelet GPIbα and GPV receptor surface expression; assay: Recombinant TACE-mediated GPIbα and GPV shedding from platelets; format: cell-based, mouse; conditions: GPIbα and GPV; GM6001 100 μM on sialidase-treated platelets
mouse platelets [9] = assay: Surface receptor loss of mouse platelets stored at room temperature; format: cell-based; conditions: DANA added during storage
bacteria = assay: Bacterial detection in stored platelet concentrate with SLP reagent, time of color detection (TOCD); format: cell-based; conditions: for time of color detection (TOCD): 1 mM DANA
Protocol: To increase the formation of planktonic bacteria, thereby improving the sensitivity of the bacterial detection, platelet storage studies were performed in a mixture of PAS (INTERSOL® solution) and plasma (80:20). Many bacterial detection methods are available. We used SLP Reagent Set (297-51501, Wako Chemicals USA), containing silkworm larvae plasma (SLP) and […] (DOPA), reconstituted according to manufacturer's instruction and stored as 100 μL aliquots at -80° C. When a sample is mixed with SLP reagent, peptidoglycan derived from the cell wall of Gram-positive and Gram-negative bacteria in the sample initiates a series of reactions including activation of multiple serine proteases called prophenoloxidase (proPO) cascade. The phenoloxidase (PO) produced in the cascade reactions oxidizes the substrate in the SLP reagent, […] (DOPA), to form melain (dark blue). The bacteria concentration in the test sample is inversely proportional to the onset time of color development: shorter time=higher concentration of bacteria; longer time=lower concentration of bacteria.
One bag of a platelet concentrate was split to two 50-mL Falcon tubes, PGE1 was added. After centrifugation at 900×g for 10 min, 80% of the supernatant (PPP) (relative to the total volume) was removed, and replaced with equal volume of platelet protection solution. The platelet was thoroughly re-suspended. The platelet suspensions were pooled and split to 4 aliquots in 15-mL Falcon tubes. DANA (1 mM) in PBS was added to two tubes while only PBS was added to the other tubes. One pair of samples with and without DANA was stored at 4° C. The second pair was kept at RT (22° C.-24° C.). Aliquots of 1.0 mL were removed on Day 0 and Day 9, and immediately pelleted (5 min, 15,800×g). […]
The pellet containing both platelets and bacteria, recovered from 1-mL aliquots sampled at different time points, was re-suspended in 100 μL of 0.1 M NaOH, and heated for 10 min at 70° C. […] The samples were left on the bench, and color development was monitored. The time of color detection (TOCD) was recorded.

CC(=O)NC1C(O)C=C(C(=O)O)OC1C(O)C(O)CO (stereo not drawn) [DANA]
exposure of P-selectin (human platelets [1]): significantly prevented the exposure of P-selectin
α-granule release (human platelets [1]): inhibited α-granule release
formation of biofilm [2]: negatively impacted
survival of biotinylated platelets in vivo (mouse platelets [3]): increases mouse platelet life span in vivo; also recorded: increases the survival
platelet microparticles (G2) (human platelets [4]; 0.1 mM DANA (41.5% without)): 23.95%
total acquired events gated as platelets (G1) (human platelets [4]; 0.1 mM DANA (55% without)): over 70%
platelet microparticles (G2) (human platelets [4]; 0.5 mM DANA): 13.52%
total acquired events gated as platelets (G1) (human platelets [4]; 0.5 mM DANA): 81.6%
platelets recovered (mouse platelets [5]; 8 mM glucose, vs 0 mM DANA): approximately 5 fold
size and density of platelets by dot plot analysis (mouse platelets [5]): efficiently preserved the size and density of platelets
loss (shedding) of platelet GPIbα and GPV induced by sialidase/neuraminidase, in presence of inhibitor (mouse platelets [6]): completely prevented this loss; also recorded: prevented all GPIbα and GPV shedding; also recorded: inhibits the loss of platelet GPIbα
platelet shape by side and forward scatter (human platelets [7]; 0.5 mM DANA): visible improvement of the platelet shape
mean fluorescence intensity (MFI) of platelet count/SSC histogram (human platelets [7]; with DANA vs without): increased
receptor shedding by rTACE in presence of inhibitor [8]: completely prevented
GPIbα and GPV receptor expression of room temperature stored mouse platelets (mouse platelets [9]): preserved receptors expression; also recorded: inhibited
bacterial growth in RT stored platelet samples (bacteria; DANA, compared with 4° C. storage): inhibits bacterial growth as effectively as 4° C.-storage
time of color detection (TOCD) (bacteria; Day 9, stored at 4° C.): ~50 min
time of color detection (TOCD) (bacteria; Day 9, stored at RT, INTERSOL/plasma 80:20 (15 min without DANA)): ~34 min

Reference: patent US9788539B2, “Platelet protection solution having beta-galactosidase and sialidase inhibitors” (Velico Medical, Inc., priority 2011, dated 2017)
